Drawing on US20090062277A1, “PHOSPHODIESTERASE 10 INHIBITORS” (priority 2007, published 2009), this text covers IC50 for 20 compounds.

By IC50 is commonly meant the point on the concentration scale where inhibition reaches its midpoint. The low end stands for higher potency, the high end for lower potency.

The assay concerns the target T1, mPDE10A7 (Mus musculus, UniProt Q8CA95).
T1 sequence (Q8CA95 446-763 limits assumed): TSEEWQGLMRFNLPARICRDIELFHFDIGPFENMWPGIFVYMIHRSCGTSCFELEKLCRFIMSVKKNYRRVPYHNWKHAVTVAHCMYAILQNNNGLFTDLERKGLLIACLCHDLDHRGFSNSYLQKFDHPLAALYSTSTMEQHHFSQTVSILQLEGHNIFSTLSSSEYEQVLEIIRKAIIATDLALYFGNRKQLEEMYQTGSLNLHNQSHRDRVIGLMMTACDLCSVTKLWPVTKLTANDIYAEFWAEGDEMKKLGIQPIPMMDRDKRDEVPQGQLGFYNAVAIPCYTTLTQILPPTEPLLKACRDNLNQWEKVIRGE
Kind of assay: mPDE10A7 enzyme inhibition (IMAP fluorescence polarization). It is filed as biochemical. The conditions noted are these: fluorescein labeled cAMP or cGMP substrate, 30 min at room temperature. The protocol:
Enzyme Activity. To analyze the enzyme activity, 5 μL of serial diluted mPDE10A7 containing lysate were incubated with equal volumes of diluted (100-fold) fluorescein labeled cAMP or cGMP for 30 min in MDC HE 96-well assay plates (Molecular Devices Corp., Sunnyvale Calif.) at room temperature. Both the enzyme and the substrates were diluted in the following assay buffer: Tris/HCl (pH 8.0) 50 mM, MgCl2 5 mM, 2-mercaptoethanol 4 mM, and BSA 0.33 mg/mL. After incubation, the reaction was stopped by adding 20 μL of diluted (400-fold) binding reagents and was incubated for an hour at room temperature. The plates were counted in an Analyst GT (Molecular Devices) for fluorescence polarization. An IMAP assay kit (Molecular Devices) was used to assess enzyme properties of mPDE10A7. Data were analyzed with SOFTMAX PRO software (Molecular Devices).
Enzyme Inhibition. To check the inhibition profile, 10 μL of serial diluted compounds were incubated with 30 μl of diluted PDE enzymes in a 96-well polystyrene assay plate for 30 min at room temperature. After incubation, 5 μL of the compound-enzyme mixture were aliquoted into a MDC HE black plate, mixed with 5 μl of 100-fold diluted fluorescein labeled substrates (cAMP or cGMP), and incubated for 30 min at room temperature. The reaction was stopped by adding 20 μL of diluted binding reagents and counted in an Analyst GT for fluorescence polarization. The data were analyzed with SoftMax Pro.
A general note: Polarisation of emitted light reports the rotation of a fluorescent probe.

With `COc1cc2nncc(-c3ccc(N4CCC(O)(c5ccccn5)CC4)nc3)c2cc1OC` [Cpd 2, 1-(5-(6,7-dimethoxycinnolin-4-yl)pyridin-2-yl)-4-(pyridin-2-yl)piperidin-4-ol], 5.58 nM corresponded to half-maximal inhibition (IC50). Regarding `COc1cc2nncc(-c3cnc(N4CCC(O)(C5CC5)CC4)c(C)c3)c2cc1OC` [Cpd 4, 4-cyclopropyl-1-(5-(6,7-dimethoxycinnolin-4-yl)-3-methylpyridin-2-yl)piperidin-4-ol], the half-inhibitory concentration (IC50) stood at 2.8 nM. Compound `COc1cc2nncc(-c3cnc(N4CCC(C)(O)CC4)c(C)c3)c2cc1OC` [Cpd 7, 1-(5-(6,7-dimethoxycinnolin-4-yl)-3-methylpyridin-2-yl)-4-methylpiperidin-4-ol] yielded an IC50 of 0.6 nM. In turn, `COc1cc2nncc(-c3cnc(N4CCC(O)(c5ccccn5)CC4)c(Cl)c3)c2cc1OC` [Cpd 8, 1-(3-chloro-5-(6,7-dimethoxycinnolin-4-yl)pyridin-2-yl)-4-(pyridin-2-yl)piperidin-4-ol] came in with an IC50 of 3.07 nM.

`COC[C@H]1CCCN1c1ncc(-c2cnnc3cc(OC)c(OC)cc23)cc1Cl` [Cpd 9] gave an IC50 of 1 nM. Compound `COc1cc2cncc(-c3cnc(N4CCC(C(C)(C)O)CC4)c(C)c3)c2cc1OC` [Cpd 12] yielded a half-maximal inhibitory concentration (IC50) of 14.7 nM. The result for `COc1cc2nncc(-c3cnc(N4CCC(O)(c5cccnc5)CC4)c(C)c3)c2cc1OC` [Cpd 13] reads 1.02 nM. `COc1cc2nncc(-c3ccc(N4CCN(c5ncc(Cl)cc5Cl)CC4)nc3)c2cc1OC` [Cpd 14] came in with a concentration for half-maximal inhibition (IC50) of 417 nM. The compound `COc1cc2nncc(-c3ccc(N4CCN(c5cccc(C(F)(F)F)c5)CC4)nc3)c2cc1OC` [Cpd 15] returned an IC50 of 126 nM. Next, `COc1cc2nncc(-c3cnc(N4CCN(c5ccc(F)cc5F)CC4)c(C)c3)c2cc1OC` [Cpd 16]: 11 nM; `COc1cc2nncc(-c3ccc(N4CCN(CC5CC5)CC4)nc3)c2cc1OC` [Cpd 17]: 10.2 nM; `COc1cc2nncc(-c3ccc(N4CCN(C(C)=O)CC4)nc3)c2cc1OC` [Cpd 18]: 6.56 nM. In the case of `COc1cc2nncc(-c3ccc(N4CCCC4CN(C)C)nc3)c2cc1OC` (centres unmarked) [Cpd 20], the half-maximal inhibitory concentration (IC50) is 60.2 nM.

`COc1cc2nncc(-c3ccc(N4CCN(C(=O)C5CC5)CC4)nc3)c2cc1OC` [Cpd 22] displayed a concentration for half-maximal inhibition (IC50) of 4.85 nM. On to `COc1cc2nccc(-c3cnc(N4CCC(C(C)(C)O)CC4)c(C)c3)c2cc1OC` [Cpd 24], for which half-maximal inhibition (IC50) was put at 4.22 nM. On to `COc1cc2nncc(-c3ccc(N4CCCC4c4cccs4)nc3)c2cc1OC` (centres unmarked) [Cpd 25], for which the concentration for half-maximal inhibition (IC50) is 7.42 nM. On to `COc1cc2nncc(-c3ccc(N4CCC(C(=O)N5CCOCC5)CC4)nc3)c2cc1OC` [Cpd 27], for which the half-maximal inhibitory concentration (IC50) came to 5.63 nM. Take `COc1cc2nncc(-c3cnc(N4CCC(C(N)=O)CC4)c(C)c3)c2cc1OC` [Cpd 28]: the IC50 stood at 2.08 nM. For the compound `CCOC(=O)C1CCN(c2ccc(-c3cnnc4cc(OC)c(OC)cc34)cn2)CC1` [Cpd 30], the IC50 was 9.57 nM. As for `COc1cc2c(-c3ccc(N4CCC(O)(c5ccccc5)CC4)nc3)cnnc2cc1C` [Cpd 35], the IC50 came out at 191 nM.
